From patent publication US20230165835A1, “METHODS OF TREATING ACUTE LUNG INJURY USING EBSELEN” (SOUND PHARMACEUTICALS INC., priority 2020, published 2023) come the findings set out here.

For data set [1] the following is noted: human, in vivo, iv.
Data set [2] has as its system SARS-CoV-2. Briefly: Reduction of SARS-CoV-2 viral load in Vero E6 cells (image based assay of Jin et al.). It is filed as cell-based. Conditions: Severe acute respiratory syndrome coronavirus 2, Vero C1008, read-out: EC50, reduction in viral load in Vero E6 cells, SARS-CoV-2; ebselen 100 nM to 1000 μM in DMSO or EtOH, remdesivir 1 nM to 10 μM.
The subject of the next data set is Vero E6 cells. Briefly: Cytotoxicity / cell viability in Vero E6 cells. In kind it is cell-based. Conditions: ebselen: at ranges slightly higher than EC50.
Data set [3] has as its system SARS-CoV-2. Nature of the data set: Hamster model of SARS-CoV-2 disease transmission and progression, viral load (PFU). Conditions: 15 mg/kg. It is filed as in vivo, Golden Syrian Hamsters. The protocol:
24 hours prior to nasal inoculation with SARS-CoV-2, Golden Syrian Hamsters were dosed with ebselen, saline and remdesivir at 15 mg/kg. Samples were taken from nares (PFU/swab) on days 1, 2 and 3, and from the nasal turbinates and cranial & caudal lung tissue (PFU/100 mg) on day 7.

The structures appear in SMILES notation. pEC50: −log10 of the molar value.

In the case of `NC[C@H]1O[C@H](O[C@H]2[C@H](O)[C@@H](O[C@H]3O[C@H](CO)[C@@H](O)[C@H](N)[C@H]3O)[C@H](N)C[C@@H]2N)[C@H](N)C[C@@H]1O` [tobramycin], in data set [1] (4 weeks), the “% Responders (Bilateral), Conv + SRO” value came out at 33%; the “% Responders (Bilateral), Conventional” value turned out to be 0%; the “% Responders (Bilateral), DPOAE” value amounted to 40%; the “% Responders (Bilateral), SRO” value was found to be 33%. For the same compound, in data set [1] (4 weeks), the “% Responders (Bilateral), WINT” value was determined as 7%; the “% Responders (Unilateral), Conv + SRO” value came to 60%; the “% Responders (Unilateral), Conventional” value is 27%; the “% Responders (Unilateral), DPOAE” value stood at 40%. Moreover, in data set [1] (4 weeks), the “% Responders (Unilateral), SRO” value is 53%; the “% Responders (Unilateral), WINT” value amounted to 33%; the “% Responders, Conv + SRO” value was 93%; the “% Responders, DPOAE” value amounted to 80%. Further, in data set [1] (4 weeks), the “% Responders, SRO” value turned out to be 87%; the “% Responders, TFI” value came out at 8%; the “% Responders, TL” value turned out to be 15%; the “% Responders, VSS” value worked out at 8%. Further, the “% Responders, WINT” value in data set [1] (4 weeks) was 40%. The “% Responders, Conventional” value in data set [1] (4 weeks post-treatment) was 27%.
A word on the pEC50: it is −log10 of the EC50, conventionally taken in molar units. Take `CCC(CC)COC(=O)[C@H](C)N[P@](=O)(OC[C@H]1O[C@@](C#N)(c2ccc3c(N)ncnn23)[C@H](O)[C@@H]1O)Oc1ccccc1` [remdesivir]: in the data set on SARS-CoV-2 [2], the pEC50 was 5.15. Also, in the data set on Vero E6 cells, the “effect on cell viability” value is recorded as “no effect on cell viability”. Besides, the “PFU/swab (nares) Day 1” value in the data set with SARS-CoV-2 [3] (24 hours prior to nasal inoculation, saline 2.7E+04) is 1.1E+04 PFU/swab. Further, the “PFU/swab (nares) Day 3” value in the data set on SARS-CoV-2 [3] (24 hours prior to nasal inoculation, saline 5.5E+02) was determined as 3.8E+03 PFU/swab. The “PFU/swab (nares) Day 2” value in the data set on SARS-CoV-2 [3] (24 hours prior to nasal inoculation, saline 7.5E+03) was 3.1E+03 PFU/swab. Further, in the data set with SARS-CoV-2 [3] (day 7, saline 4.9E+06), the “PFU/100 mg Cranial lung” value came out at 4.4E+06 PFU/100 mg. Also, the “PFU/100 mg Turbinates” value with SARS-CoV-2 [3] (day 7, saline 5.5E+07) worked out at 4.0E+02 PFU/100 mg. The “PFU/100 mg Caudal lung” value with SARS-CoV-2 [3] (day 7, saline 6.1E+06) is listed as 1.2E+07 PFU/100 mg.
